Biological target: T1, F508del in NIH 3T3 cells (Homo sapiens, UniProt P13569, DEL508-508)
T1 construct: expressed in transfected cells
Assay: 3T3 assay: membrane potential optical assay for F508del correction
Type: cell-based, mouse
Settings: F508del NIH 3T3 cells; for EC50: incubated with compound 18-24 hours at 37° C., forskolin activation; for Emax: NIH3T3, efficacy compared to lumacaftor in combination with acutely added 300 nM Ivacaftor, read-out: 3T3 Max Activity (%)
Text: Membrane Potential Optical Methods for Assaying F508del Modulation Properties of Compounds The assay utilizes fluorescent voltage sensing dyes to measure changes in membrane potential using a fluorescent plate reader (e.g., FLIPR III, Molecular Devices, Inc.) as a readout for increase in functional F508del in NIH 3T3 cells. The driving force for the response is the creation of a chloride ion gradient in conjunction with channel activation by a single liquid addition step after the cells have previously been treated with compounds and subsequently loaded with a voltage sensing dye. 2. Identification of Corrector Compounds To identify correctors of F508del, a single-addition HTS assay format was developed. This HTS assay utilizes fluorescent voltage sensing dyes to measure changes in membrane potential on the FLIPR III as a measurement for increase in gating (conductance) of F508del in F508del NIH 3T3 cells. The F508del NIH 3T3 cell cultures were incubated with the corrector compounds at a range of concentrations for 18-24 hours at 37° C., and subsequently loaded with a redistribution dye. The driving force for the response is a Cl^− ion gradient in conjunction with channel activation with forskolin in a single liquid addition step using a fluorescent plate reader such as FLIPR III. […] Solutions […] Chloride-free bath solution: Chloride salts in Bath Solution #1 (above) are substituted with gluconate salts. 4. Cell Culture NIH3T3 mouse fibroblasts stably expressing F508del are used for optical measurements of membrane potential. The cells are maintained at 37° C. in 5% CO2 and 90% humidity in Dulbecco's modified Eagle's medium supplemented with 2 mM glutamine, 10% fetal bovine serum, 1×NEAA, b-ME, 1×pen/strep, and 25 mM HEPES in 175 cm^2 culture flasks. For all optical assays, the cells were seeded at ˜20,000/well in 384-well Matrigel-coated plates. For the correction assays, the cells are cultured at 37° C. with and without compounds for 16-24 hours.

T1 sequence (P13569 with tags, fused parts or gaps DEL508-508): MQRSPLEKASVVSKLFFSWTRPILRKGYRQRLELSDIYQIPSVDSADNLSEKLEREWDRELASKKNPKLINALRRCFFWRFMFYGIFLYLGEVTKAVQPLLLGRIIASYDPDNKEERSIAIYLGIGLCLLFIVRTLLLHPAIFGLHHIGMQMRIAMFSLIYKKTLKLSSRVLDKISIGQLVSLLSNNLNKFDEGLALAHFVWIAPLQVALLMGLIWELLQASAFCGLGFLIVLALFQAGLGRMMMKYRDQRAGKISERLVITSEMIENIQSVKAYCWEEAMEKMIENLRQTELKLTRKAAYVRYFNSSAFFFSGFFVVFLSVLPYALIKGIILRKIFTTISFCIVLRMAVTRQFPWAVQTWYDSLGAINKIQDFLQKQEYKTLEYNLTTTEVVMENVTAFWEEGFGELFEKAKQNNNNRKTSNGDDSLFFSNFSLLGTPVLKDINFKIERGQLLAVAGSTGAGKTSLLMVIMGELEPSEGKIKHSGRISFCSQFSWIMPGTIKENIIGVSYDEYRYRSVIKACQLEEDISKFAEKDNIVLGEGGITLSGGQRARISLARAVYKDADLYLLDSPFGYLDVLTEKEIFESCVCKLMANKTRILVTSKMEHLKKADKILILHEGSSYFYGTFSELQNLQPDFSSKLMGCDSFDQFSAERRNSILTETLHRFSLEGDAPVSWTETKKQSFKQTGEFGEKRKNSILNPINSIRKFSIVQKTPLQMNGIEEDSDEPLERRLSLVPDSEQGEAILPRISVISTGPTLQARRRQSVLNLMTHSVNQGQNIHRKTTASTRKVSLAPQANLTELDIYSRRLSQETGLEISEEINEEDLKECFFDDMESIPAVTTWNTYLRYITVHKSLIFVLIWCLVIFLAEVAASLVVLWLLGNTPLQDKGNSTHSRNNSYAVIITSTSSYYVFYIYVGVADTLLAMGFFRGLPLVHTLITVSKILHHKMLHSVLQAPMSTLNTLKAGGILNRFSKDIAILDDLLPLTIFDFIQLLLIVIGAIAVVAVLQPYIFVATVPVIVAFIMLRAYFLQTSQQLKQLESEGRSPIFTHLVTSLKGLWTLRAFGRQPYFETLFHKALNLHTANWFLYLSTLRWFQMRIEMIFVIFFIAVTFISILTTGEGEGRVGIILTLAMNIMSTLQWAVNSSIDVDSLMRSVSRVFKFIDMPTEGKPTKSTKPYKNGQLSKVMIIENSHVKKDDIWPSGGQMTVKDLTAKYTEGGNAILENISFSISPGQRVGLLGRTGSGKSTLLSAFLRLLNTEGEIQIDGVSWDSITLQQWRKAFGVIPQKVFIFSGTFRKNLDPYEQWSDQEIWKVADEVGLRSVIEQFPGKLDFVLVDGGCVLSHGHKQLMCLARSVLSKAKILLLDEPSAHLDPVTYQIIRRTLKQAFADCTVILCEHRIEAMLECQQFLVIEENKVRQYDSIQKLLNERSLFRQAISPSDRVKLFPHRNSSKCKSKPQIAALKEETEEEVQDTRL

| Compound | EC50 [µM] | Emax [%] |
| --- | --- | --- |
| O=S(=O)(Nc1nc2c(c(Oc3ccccc3)n1)CCCC2)c1ccccc1 [Compound 4, N-(4-phenoxy-5,6,7,8-tetrahydroquinazolin-2-yl)benzenesulfonamide] | 3 to 30 | > 60 |
| Cc1ccccc1Oc1nc(NS(=O)(=O)c2cnn(C)c2)nc2c1CCCC2(C)C [Compound 5, N-[8,8-Dimethyl-4-(2-methylphenoxy)-6,7-dihydro-5H-quinazolin-2-yl]-1-methyl-pyrazole-4-sulfonamide] | 3 to 30 | 30 to 60 |
| O=S(=O)(Nc1nc2c(c(Oc3ccccc3)n1)CCC2)c1ccccc1 [Compound 6, N-(4-phenoxy-6,7-dihydro-5H-cyclopenta[d]pyrimidin-2-yl)benzenesulfonamide] | 3 to 30 | > 60 |
| O=S(=O)(NC1=Nc2ccccc2C(c2ccccc2)S1)c1ccccc1 (stereo not drawn) [Compound 9, N-(4-phenyl-4H-3,1-benzothiazin-2-yl)benzenesulfonamide] | 3 to 30 | – |
| Cc1cccc(C)c1Oc1nc2ccccc2nc1NS(=O)(=O)c1ccccc1 [Compound 11, N-[3-(2,6-Dimethylphenoxy)quinoxalin-2-yl]benzenesulfonamide] | 3 to 30 | – |
| O=S(=O)(Nc1nc2ccccc2nc1N1CCCCC1)c1ccccc1 [Compound 12, N-[3-(1-piperidyl)quinoxalin-2-yl]benzenesulfonamide] | 3 to 30 | 30 to 60 |
| Cc1ccccc1Oc1nc2ccccc2nc1NS(=O)(=O)c1ccccc1 [Compound 15] | 3 to 30 | 30 to 60 |
| O=S(=O)(Nc1nc(Oc2ccccc2)nc2ccccc12)c1ccccc1 [Compound 16] | – | < 30 |
| Cc1cc(C)cc(-c2nc(NS(=O)(=O)c3ccccc3)c3ccc(C(C)(C)C)nc3n2)c1 [Compound 17] | – | < 30 |
| Cc1ccc(-c2nc(NS(=O)(=O)c3ccccc3)c3ccc(C(C)(C)C)nc3n2)c(C)c1 [Compound 18] | – | < 30 |
| Cc1cc(C)c(Oc2nc(NS(=O)(=O)c3ccccc3)c3ccc(C(C)(C)C)nc3n2)c(C)c1 [Compound 19] | – | < 30 |
| O=S(=O)(Nc1nc2c(s1)-c1ccccc1CC2)c1ccccc1 [Compound 20, N-(4,5-Dihydrobenzo[g][1,3]benzothiazol-2-yl) benzenesulfonamide] | 3 to 30 | – |
| CC(C)(O)C1CCc2nc(NS(=O)(=O)c3ccccc3)sc2C1 (stereo not drawn) [Compound 21] | – | < 30 |
| CC(C)N1CCc2nc(NS(=O)(=O)c3ccccc3)sc2C1 [Compound 22] | – | < 30 |
| CC1CCc2nc(NS(=O)(=O)c3ccccc3)sc2C1 (stereo not drawn) [Compound 24] | – | < 30 |
| O=S(=O)(Nc1nc2c(s1)Cc1ccccc1-2)c1ccccc1 [Compound 27] | 3 to 30 | 30 to 60 |
| Cc1cc(C)cc(-c2nc(NS(=O)(=O)c3ccccc3)nc3ccccc23)c1 [Compound 28, N-[4-(3,5-Dimethylphenyl)quinazolin-2-yl]benzenesulfonamide] | 1 to 3 | – |
| O=S(=O)(Nc1nc(Oc2ccccc2)c2ccccc2n1)c1ccccc1 [Compound 31, N-(4-phenoxyquinazolin-2-yl)benzenesulfonamide] | 3 to 30 | – |
| Cc1cc(C)c(-n2nc(NS(=O)(=O)c3cn[nH]c3)c3ccc(C(C)(C)C)nc32)c(C)c1 [Compound 35, N-[6-tert-butyl-1-(2,4,6-trimethylphenyl)pyrazolo[3,4-b]pyridin-3-yl]-1H-pyrazole-4-sulfonamide] | 1 to 3 | > 60 |
| Cc1cc(C)c(-n2nc(NS(=O)(=O)c3ccc(N)cc3)c3ccc(C(C)(C)C)nc32)c(C)c1 [Compound 36, 4-Amino-N-[6-tert-butyl-1-(2,4,6-trimethylphenyl)pyrazolo[3,4-b]pyridin-3-yl]benzenesulfonamide] | 1 to 3 | – |
| CC(C)n1nc(NS(=O)(=O)c2ccccc2)c2ccc(C(C)(C)C)nc21 [Compound 39, N-(6-tert-butyl-1-isopropyl-pyrazolo[3,4-b]pyridin-3-yl)benzenesulfonamide] | 1 to 3 | – |

Next, values leading:

| EC50 [µM] | Emax [%] | Compound |
| --- | --- | --- |
| 1 to 3 | > 60 | Cc1ccccc1Oc1nc(NS(=O)(=O)c2cnn(C)c2)nc2c1C(C)(C)CCC2 [Compound 1, N-[5,5-dimethyl-4-(2-methylphenoxy)-7,8-dihydro-6H-quinazolin-2-yl]-1-methyl-pyrazole-4-sulfonamide] |
| 1 to 3 | > 60 | Cc1ccccc1Oc1nc(NS(=O)(=O)c2cnn(C)c2)nc2c1CCC(C)(C)C2 [Compound 2, N-[7,7-Dimethyl-4-(2-methylphenoxy)-6,8-dihydro-5H-quinazolin-2-yl]-1-methyl-pyrazole-4-sulfonamide] |
| 1 to 3 | > 60 | Cc1ccccc1Oc1nc(NS(=O)(=O)c2cnn(C)c2)nc2c1CC(C)(C)CC2 [Compound 3, N-[6,6-Dimethyl-4-(2-methylphenoxy)-7,8-dihydro-5H-quinazolin-2-yl]-1-methyl-pyrazole-4-sulfonamide] |
| < 1 | > 60 | Cc1ccccc1Oc1nc(NS(=O)(=O)c2cnn(C)c2)nc2c1CCc1ccccc1-2 [Compound 7] |
| < 1 | – | CC(C)(C)c1ccccc1Oc1nc2ccccc2nc1NS(=O)(=O)c1ccccc1 [Compound 10, N-[3-(2-tert-butylphenoxy)quinoxalin-2-yl]benzenesulfonamide] |
| 1 to 3 | 30 to 60 | Cc1cc(C)c(Oc2nc3ccccc3nc2NS(=O)(=O)c2ccccc2)c(C)c1 [Compound 13] |
| 1 to 3 | 30 to 60 | Cc1ccc(Oc2nc3ccccc3nc2NS(=O)(=O)c2ccccc2)c(C)c1 [Compound 14] |
| 1 to 3 | 30 to 60 | CC(C)(C)C1CCc2nc(NS(=O)(=O)c3ccccc3)sc2C1 (stereo not drawn) [Compound 25] |
| 1 to 3 | 30 to 60 | O=S(=O)(Nc1nc2c(s1)CCc1ccccc1-2)c1ccccc1 [Compound 26] |
| < 1 | – | O=S(=O)(Nc1nc(-c2ccccc2)c2ccn(-c3ccccc3)c2n1)c1ccccc1 [Compound 29, N-(4,7-Diphenylpyrrolo[2,3-d]pyrimidin-2-yl)benzenesulfonamide] |
| < 1 | – | Cc1cc(C)cc(-c2nc(NS(=O)(=O)c3ccccc3)nc3nc(C(C)(C)C)ccc23)c1 [Compound 30, N-[7-tert-butyl-4-(3,5-dimethylphenyl)pyrido[2,3-d]pyrimidin-2-yl]benzenesulfonamide] |
| < 1 | – | Nc1cccc(S(=O)(=O)Nc2nc(-c3ccccc3)c3ccn(-c4ccccc4)c3n2)c1 [Compound 32, 3-Amino-N-(4,7-diphenylpyrrolo[2,3-d]pyrimidin-2-yl)benzenesulfonamide] |
| < 1 | > 60 | Cc1cc(C)c(-n2nc(NS(=O)(=O)c3cccc(N(C)C)c3)c3ccc(C(C)(C)C)nc32)c(C)c1 [Compound 34, N-[6-tert-butyl-1-(2,4,6-trimethylphenyl)pyrazolo[3,4-b]pyridin-3-yl]-3-(dimethylamino)benzenesulfonamide] |
| < 1 | 30 to 60 | Cc1cc(C)cc(-n2nc(NS(=O)(=O)c3ccccc3)c3ccc(C(C)(C)C)nc32)c1 [Compound 37, N-[6-tert-Butyl-1-(3,5-dimethylphenyl)pyrazolo[3,4-b]pyridin-3-yl]benzenesulfonamide] |
| < 1 | 30 to 60 | CC(C)(C)c1ccc2c(NS(=O)(=O)c3ccccc3)nn(-c3cccc(Cl)c3)c2n1 [Compound 38, N-[6-tert-butyl-1-(3-chlorophenyl)pyrazolo[3,4-b]pyridin-3-yl]benzenesulfonamide] |

— patent US20230373974A1, “MODULATORS OF CYSTIC FIBROSIS TRANSMEMBRANE CONDUCTANCE REGULATOR” (VERTEX PHARMACEUTICALS INCORPORATED, priority 2020, published 2023)
